In data set [1] the test system is CYP enzymes in rat liver microsomes (RLM). The data set can be described thus: Inhibition of 20-HETE production in rat liver microsomes (RLM). Type of data set: biochemical. A digest of the protocol: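 Test compounds were dissolved in DMSO, diluted in acetonitrile/DMSO (3:1), and 2 μl was mixed with 100 μl potassium phosphate buffer containing rat liver microsomes in a 96-well plate. Duplicate 30 μl aliquots received 15 μl of 400 μM substrate, were preheated at 37° C. for 10 minutes, then started with 15 μl of 6 mM NADPH for 25 minutes. LC-MS/MS measured 20-HETE formation.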

Data set [2] has as its target recombinant CYP4F2 (rCYP4F2) (Homo sapiens (Human), UniProt P78329). The data set can be described thus: Inhibition of 20-HETE production by recombinant CYP4F2. Type of data set: biochemical. To be noted: read-out: rCYP4F2 (% inh @ 100 nM). Here is the method:
(§1) Experimental principle: The inhibitory activity of 20-HETE production is evaluated by testing the inhibitory effects of the compound on human liver microsomes (HLM), rat liver microsomes (RLM), mouse liver microsomes (MLM), or […] CYP4 subtype enzymes (CYP4F2). This assay employs HLM, RLM, or MLM along with recombinant CYP4F2 (rCYP4F2) and recombinant CYP4A11 (rCYP4A11), which are […] CYP4 subtype enzymes, to detect the effects of the test compound at different concentrations on the metabolic rate of enzyme-specific substrates, to determine the inhibitory effects of the test compound on CYP enzymes in HLM, RLM, or MLM.
(§2) Experimental methods: Dissolve the test compound in DMSO, and subsequently dilute it with an acetonitrile and DMSO mixture (3:1). Add 2 μl of varying concentrations of the test compound and 100 μl of potassium phosphate buffer containing either liver microsomes or recombinant enzymes to a 96-well plate. After mixing well, transfer 30 μl to another well (in duplicate), add 15 μl of 400 μM substrate solution, and mix well again. Preheat at 37° C. for 10 minutes, and then add 15 μl of 6 mM NADPH and incubate at 37° C. for 25 minutes. After 25 minutes, add 160 μl of acetonitrile solution (containing 0.1 μg/ml internal standard) to stop the reaction. Mix well, centrifuge at 3500 g for 15 minutes, and then analyze the supernatant using LC-MS/MS.
(§3) Plot the compound concentration on the x-axis and the inhibition rate on the y-axis to draw the curve. Use GraphPad Prism 5 software to fit the curve and calculate the IC50. The formula is Y=Bottom+(Top−Bottom)/(1+10^((Log IC50−X)×HillSlope)). X represents the logarithmic concentration of the inhibitor, and Y represents the relative enzyme activity at a given inhibitor concentration (relative to the condition without the inhibitor).
(§4) Calculate the inhibition percentages at concentrations of 1000 nM, 500 nM, or 100 nM as well as the half-maximal inhibitory concentration (IC50) of the test compound from the above experiment.

Data set [3] deals with recombinant CYP4A11 (rCYP4A11) (Homo sapiens (Human), UniProt Q02928). The data set can be described thus: Inhibition of 20-HETE production by recombinant CYP4A11. Type of data set: biochemical. To be noted: read-out: rCYP4A11 (% inh @ 100 nM). As for the experimental part:
as §1, §2, §3, §4

Data set [4] deals with CYP enzymes in human liver microsomes (HLM). The data set can be described thus: Inhibition of 20-HETE production in human liver microsomes (HLM). Type of data set: biochemical. A digest of the protocol:
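LC-MS/MS read-out of 20-HETE formation, expressed as activity relative to no-inhibitor control and fitted to a Hill equation for IC50; percent inhibition also given at 1000, 500 or 100 nM. Enzyme sources: recombinant CYP4F2, recombinant CYP4A11, or human or mouse liver microsomes. Each is combined with compound and substrate (400 μM solution) and warmed 10 min at 37 °C, then incubated 25 min at 37 °C after adding NADPH (6 mM solution).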
For orientation: Microsomes from liver hold many membrane-bound enzymes, among them those of drug oxidation.

For data set [5], the system named is CYP enzymes in mouse liver microsomes (MLM). The data set can be described thus: Inhibition of 20-HETE production in mouse liver microsomes (MLM). Type of data set: biochemical. Here is the method:
as §1, §2, §3, §4

The nature of data set [6]: Pharmacokinetic (PK) experiment, oral administration in rats. To be noted: 20 mg/kg; for AUC(0-inf) / Cmax / Tmax / half-life / AUC(0-t): male, SD, rat, plasma; for AUC(0-t): read-out: AUC0-24. Type of data set: in vivo, Male SD rats. Here is the method:
Male SD rats, weighing 180-250 grams, were fasted overnight before testing. The test compound was dissolved in 30% sulfobutylether-β-cyclodextrin and administered orally at a dose of 20 mg/kg. Blood was collected from the tail vein at 15 minutes, 30 minutes, and 1, 2, 4, 6, 8, and 24 hours after administration. Approximately 0.3 ml of blood was collected at each time point, placed in a centrifuge tube containing K2-EDTA, and centrifuged (2000 g for 10 minutes at 4° C.) to take the plasma, which was then stored in an ultra-low temperature freezer at −70° C. or below. A 50 μL plasma sample was mixed with 135 μL of acetonitrile (containing 0.5 μg/mL internal standard) and vortexed for protein precipitation. After centrifugation, the supernatant was taken for LC-MS/MS analysis.

Sequence of recombinant CYP4A11 (rCYP4A11) (Q02928 5-519): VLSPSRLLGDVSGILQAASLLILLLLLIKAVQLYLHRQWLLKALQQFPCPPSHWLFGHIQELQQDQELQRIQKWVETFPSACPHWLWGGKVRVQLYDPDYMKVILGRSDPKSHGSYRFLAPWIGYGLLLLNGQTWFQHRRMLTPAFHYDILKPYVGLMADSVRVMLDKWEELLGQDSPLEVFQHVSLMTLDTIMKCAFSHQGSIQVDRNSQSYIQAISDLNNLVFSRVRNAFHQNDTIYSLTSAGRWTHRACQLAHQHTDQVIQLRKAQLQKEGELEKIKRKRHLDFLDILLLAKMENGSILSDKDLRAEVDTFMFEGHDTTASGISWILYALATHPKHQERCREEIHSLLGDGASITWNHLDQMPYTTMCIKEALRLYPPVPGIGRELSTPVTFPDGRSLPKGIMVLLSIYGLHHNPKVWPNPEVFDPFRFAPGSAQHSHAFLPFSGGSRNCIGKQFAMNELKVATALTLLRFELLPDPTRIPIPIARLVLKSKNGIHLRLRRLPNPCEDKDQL
Sequence of recombinant CYP4F2 (rCYP4F2) (P78329 5-520): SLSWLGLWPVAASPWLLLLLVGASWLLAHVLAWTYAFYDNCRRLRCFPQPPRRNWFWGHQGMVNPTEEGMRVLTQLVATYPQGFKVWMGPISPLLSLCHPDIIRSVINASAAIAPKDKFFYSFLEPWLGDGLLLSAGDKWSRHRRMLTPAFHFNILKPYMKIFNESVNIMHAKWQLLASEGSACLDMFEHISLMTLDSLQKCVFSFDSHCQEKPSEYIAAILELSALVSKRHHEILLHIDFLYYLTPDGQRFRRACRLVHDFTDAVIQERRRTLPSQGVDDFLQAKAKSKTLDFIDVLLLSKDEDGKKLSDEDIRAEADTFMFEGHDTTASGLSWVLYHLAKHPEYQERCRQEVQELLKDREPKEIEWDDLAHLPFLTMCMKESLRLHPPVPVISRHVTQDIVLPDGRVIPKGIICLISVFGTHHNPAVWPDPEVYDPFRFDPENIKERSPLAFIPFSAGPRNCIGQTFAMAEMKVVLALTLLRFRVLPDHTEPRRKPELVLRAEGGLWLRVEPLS

A word on the IC50: it is the concentration that gives 50% inhibition. Read a low IC50 as higher potency. `O=C1CCCN1CC1CCN(c2ccc(-c3cn[nH]c3)c(F)c2)CC1` [Compound 3, 1-((1-(3-fluoro-4-(1H-pyrazol-4-yl)phenyl)piperidin-4-yl)methyl)pyrrolidin-2-one] showed an IC50 in data set [1] of 322 nM. The results for the inhibition at 0.1 µM in data set [2] and in data set [3] were 64.2% and 27.8%, respectively. Further, in data set [4], the “HLM (% inh @ 500 nM)” value was determined as 75.59%.
As usually defined, the AUC(0-inf) is the area under the concentration-time curve extrapolated to infinity. Higher therefore signals more exposure. Broadly, the Cmax is the highest concentration seen after dosing. In general, Tmax refers to the time from dosing to the highest level. By half-life is commonly meant the time needed for the level to fall by half in the phase considered. Read a high half-life as slow loss. On to `O=C1CCCCN1CC1CCN(c2ccc(-c3cn[nH]c3)c(F)c2F)CC1` [Compound 26, 1-((1-(2,3-difluoro-4-(1H-pyrazol-4-yl)phenyl)piperidin-4-yl)methyl)piperidin-2-one], for which, in data set [1], the IC50 is 124 nM and the “RLM (% inh @ 500 nM)” value is 63.62%. In addition, in data set [2], the inhibition at 0.1 µM was 78%. The inhibition at 0.1 µM in data set [3] came out at 53.9%. This compound also came in with an IC50 in data set [5] of 1670 nM. In data set [6], the “absorption and blood exposure after oral administration (in words)” value (from here on “absorption and blood exposure”) is “well absorbed and exhibit high blood exposure”; the AUC(0-inf) was 40500 ng·h/mL; the highest level (Cmax) was 7150 ng/mL; the Tmax is 1.67 h. In addition, in data set [6], the half-life was 2.93 h and the AUC(0-t) amounted to 40300 ng·h/mL. The “HLM (% inh @ 500 nM)” value in data set [4] stood at 89.67%.
Consider `O=C(C1CCCC1)N1CCC(c2ccc(-c3cn[nH]c3)cc2)CC1` [Compound 70, (4-(4-(1H-pyrazol-4-yl)phenyl)piperidin-1-yl)(cyclopentyl) methanone], for which the IC50 in data set [1] is 4.9 nM. The inhibition at 0.1 µM in data set [2] was determined as 79.2%. In addition, the inhibition at 0.1 µM in data set [3] stood at 65.5%. This compound also came in with an IC50 in data set [5] of 135 nM. Also, in data set [6], the “absorption and blood exposure” value is “well absorbed and exhibit high blood exposure”; the AUC(0-inf) turned out to be 69000 ng·h/mL; the highest level (Cmax) was 7320 ng/mL; the Tmax is 3 h. Besides, in data set [6], the half-life was 2.57 h and the AUC(0-t) is 68800 ng·h/mL. In addition, in data set [4], the IC50 stood at 19.4 nM and the “HLM (% inh @ 500 nM)” value was found to be 89.89%.
Consider `O=C(NCC1CCN(c2ccc(-c3cn[nH]c3)cc2)CC1)c1ccccc1` [Compound 47, N-((1-(4-(1H-pyrazol-4-yl)phenyl)piperidin-4-yl)methyl)benzamide], for which, in data set [1], the “RLM (% inh @ 500 nM)” value turned out to be 35.64%. For the same compound, the inhibition at 0.1 µM in data set [2] was 66%; in data set [3], 41.1%. Also, half-maximal inhibition in data set [4] (IC50) was put at 42.7 nM.
Regarding `O=C1CCCCN1CC1CCN(c2ccc(-c3cn[nH]c3)cc2)CC1` [Compound 25, 1-((1-(4-(1H-pyrazol-4-yl)phenyl)piperidin-4-yl)methyl)piperidin-2-one], the IC50 in data set [1] was determined as 159 nM; in data set [5], 766 nM; in data set [4], 29.3 nM. The “RLM (% inh @ 500 nM)” value in data set [1] is 61.49%. The results for the inhibition at 0.1 µM in data set [2] and in data set [3] were 56% and 30.6%, respectively. Besides, the “HLM (% inh @ 500 nM)” value in data set [4] is recorded as 80.65%.
With `O=C(C1CCN(c2ccc(-c3cn[nH]c3)cc2)CC1)N1Cc2ccccc2C1` [Compound 66, (1-(4-(1H-pyrazol-4-yl)phenyl)piperidin-4-yl)(isoindolin-2-yl) methanone], the “RLM (% inh @ 500 nM)” value in data set [1] is 64.35%. Further, in data set [2], the inhibition at 0.1 µM came to 70.5%. For the same compound, the inhibition at 0.1 µM in data set [3] came to 9.25%. For the same compound, in data set [6], the “absorption and blood exposure” value was “well absorbed and exhibit high blood exposure”; the AUC(0-inf) stood at 486000 ng·h/mL; the concentration peaked (Cmax) at 26800 ng/mL; the Tmax amounted to 3.33 h. In data set [6], the half-life is 12.5 h and the AUC(0-t) is 364000 ng·h/mL. Moreover, in data set [4], the “HLM (% inh @ 500 nM)” value worked out at 69.53%.
For the compound `O=C1CCCCN1CC1CCN(c2c(F)cc(-c3cn[nH]c3)cc2F)CC1` [Compound 27, 1-((1-(2,6-difluoro-4-(1H-pyrazol-4-yl)phenyl)piperidin-4-yl)methyl)piperidin-2-one], the IC50 amounted to 23.3 nM in data set [1], 1150 nM in data set [5] and 26 nM in data set [4]. Moreover, the inhibition at 0.1 µM in data set [2] turned out to be 78.4%; in data set [3], 52.3%. The “HLM (% inh @ 500 nM)” value in data set [4] worked out at 88.87%.
On to `O=C(C1CCN(c2ccc(-c3cn[nH]c3)cc2)CC1)N1CCCC1` [Compound 49, (1-(4-(1H-pyrazol-4-yl)phenyl)piperidin-4-yl)(pyrrolidin-1-yl) methanone], for which 521 nM corresponded to half-maximal inhibition in data set [1] (IC50). Further, the “RLM (% inh @ 500 nM)” value in data set [1] turned out to be 44.31%. For the same compound, the inhibition at 0.1 µM in data set [2] amounted to 42.4%; in data set [3], 23.3%. Moreover, the “HLM (% inh @ 500 nM)” value in data set [4] was determined as 79.80%.
Turning to `O=C(Nc1ccc2occc2c1)C1CCN(c2ccc(-c3cn[nH]c3)cc2)CC1` [Compound 62, 1-(4-(1H-pyrazol-4-yl)phenyl)-N-(benzofuran-5-yl)piperidine-4-carboxamide], the “RLM (% inh @ 500 nM)” value in data set [1] worked out at 50.28%. For the same compound, the inhibition at 0.1 µM in data set [2] was 79.2%. The inhibition at 0.1 µM in data set [3] came out at 25.8%. In addition, in data set [4], the IC50 worked out at 19.6 nM and the “HLM (% inh @ 500 nM)” value worked out at 85.05%.
With `O=C(NC1CCCCC1)C1CCN(c2ccc(-c3cn[nH]c3)cc2)CC1` [Compound 57, 1-(4-(1H-pyrazol-4-yl)phenyl)-N-cyclohexylpiperidine-4-carboxamide], in data set [1], the “RLM (% inh @ 500 nM)” value is recorded as 49.97%. In addition, the results for the inhibition at 0.1 µM in data set [2] and in data set [3] were 61.7% and 8.98%, respectively. In data set [4], the “HLM (% inh @ 500 nM)” value was 81.76%.
In data set [1], `O=C1CCCN1CC1CCN(c2ccc(-c3cn[nH]c3)cc2C(F)F)CC1` [Compound 19, 1-((1-(2-(difluoromethyl)-4-(1H-pyrazol-4-yl)phenyl)piperidin-4-yl)methyl)pyrrolidin-2-one] displayed an IC50 of 434 nM. Besides, the “RLM (% inh @ 500 nM)” value in data set [1] came to 59.42%. In addition, the inhibition at 0.1 µM was found to be 61.4% in data set [2] and 58.7% in data set [3]. The “HLM (% inh @ 500 nM)” value in data set [4] amounted to 87.01%.
For `O=C1CCCN1CC1CCN(c2ccc(-c3cn[nH]c3)cc2)C1` (stereo not shown) [Compound 74, 1-((1-(4-(1H-pyrazol-4-yl)phenyl)pyrrolidin-3-yl)methyl)pyrrolidin-2-one], the “RLM (% inh @ 500 nM)” value in data set [1] is 47.19%. Besides, the inhibition at 0.1 µM in data set [2] turned out to be 52.8%; in data set [3], 17.5%. Also, the “HLM (% inh @ 500 nM)” value in data set [4] turned out to be 72.44%.
Take `O=C1CCCN1CC1CCN(c2ccc(-c3ccno3)cc2)CC1` [Compound 34, 1-((1-(4-(isoxazol-5-yl)phenyl)piperidin-4-yl)methyl)pyrrolidin-2-one]: the “RLM (% inh @ 500 nM)” value in data set [1] turned out to be 83.75%. Moreover, the inhibition at 0.1 µM is 49.7% in data set [2] and 1.59% in data set [3]. The “HLM (% inh @ 500 nM)” value in data set [4] is 71.06%.
The compound `O=C1CCCN1CC1CCN(c2ccc(-c3cn[nH]c3)cc2Cl)CC1` [Compound 11, 1-((1-(2-chloro-4-(1H-pyrazol-4-yl)phenyl)piperidin-4-yl)methyl)pyrrolidin-2-one] returned an IC50 in data set [1] of 157 nM. The inhibition at 0.1 µM in data set [2] came out at 59.7%; in data set [3] it was 46.3%. The “HLM (% inh @ 500 nM)” value in data set [4] stood at 80.98%.
For the compound `O=C(Nc1ccc2ccccc2c1)C1CCN(c2ccc(-c3cn[nH]c3)cc2)CC1` [Compound 64, 1-(4-(1H-pyrazol-4-yl)phenyl)-N-(naphthalen-2-yl)piperidine-4-carboxamide], the figures for the IC50 in data set [1] and in data set [4] were 86.4 nM and 20 nM, respectively. Also, the inhibition at 0.1 µM in data set [2] is 73.8%; in data set [3], 40.6%. In addition, the “HLM (% inh @ 500 nM)” value in data set [4] is listed as 81.86%.
